Source: patent US20030013761A1, “Use of fumaric acid derivatives for treating mitochondrial diseases” (priority 2000, published 2003)
Where a name gives a salt, the structure may show the parent alone.

Target: T1, succinate dehydrogenase (Homo sapiens, UniProt P31040)
T1 construct: Fibroblasts [0.75 m Val/I]; endogenous in cells
Assay: Stimulating influence of fumaric acid derivatives on the enzyme activity of succinate dehydrogenase in fibroblasts
Type: cell-based
Settings: Fibroblasts [0.75 m Val/I]
Description: Succinate dehydrogenase is part of the mitochondrial membrane and catalyses the […] of succinic acid to fumaric acid within the citrate cycle. Hydrogen is passed to the respiratory chain via the electron transfer flavoprotein. Thus, the activity of succinate dehydrogenase may influence the electron flow of the electron transport chain. The latter, in turn, is linked to the process of oxidative phosphorylation, the malfunction of which is considered a cause for mitochondrial diseases. Consequently, the activity of succinate dehydrogenase may also have an effect on oxidative phosphorylation.

T1 sequence (P31040 43-664): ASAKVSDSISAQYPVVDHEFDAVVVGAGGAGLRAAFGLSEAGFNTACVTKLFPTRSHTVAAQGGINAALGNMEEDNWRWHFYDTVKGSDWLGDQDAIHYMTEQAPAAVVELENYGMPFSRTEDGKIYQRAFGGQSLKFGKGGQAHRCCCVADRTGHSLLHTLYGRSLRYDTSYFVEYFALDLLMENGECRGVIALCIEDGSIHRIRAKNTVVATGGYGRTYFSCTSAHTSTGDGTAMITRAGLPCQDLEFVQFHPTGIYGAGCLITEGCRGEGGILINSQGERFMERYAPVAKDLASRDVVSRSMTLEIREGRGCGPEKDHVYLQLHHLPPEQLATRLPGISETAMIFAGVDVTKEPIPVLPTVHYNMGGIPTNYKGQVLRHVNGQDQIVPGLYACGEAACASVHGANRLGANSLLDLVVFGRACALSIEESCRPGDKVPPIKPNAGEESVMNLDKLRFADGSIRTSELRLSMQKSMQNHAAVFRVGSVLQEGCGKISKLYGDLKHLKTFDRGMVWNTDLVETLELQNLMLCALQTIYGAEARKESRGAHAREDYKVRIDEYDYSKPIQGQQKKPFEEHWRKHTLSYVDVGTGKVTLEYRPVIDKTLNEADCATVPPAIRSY
T1 sequence (P21912 29-280 partner): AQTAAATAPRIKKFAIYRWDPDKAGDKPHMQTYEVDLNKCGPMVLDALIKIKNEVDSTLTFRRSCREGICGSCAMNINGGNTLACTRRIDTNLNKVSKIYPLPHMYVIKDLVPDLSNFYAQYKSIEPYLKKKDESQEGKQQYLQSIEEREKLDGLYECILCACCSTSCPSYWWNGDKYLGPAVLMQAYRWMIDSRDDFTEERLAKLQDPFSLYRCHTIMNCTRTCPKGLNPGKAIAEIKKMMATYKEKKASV
T1 sequence (Q99643 30-169 partner): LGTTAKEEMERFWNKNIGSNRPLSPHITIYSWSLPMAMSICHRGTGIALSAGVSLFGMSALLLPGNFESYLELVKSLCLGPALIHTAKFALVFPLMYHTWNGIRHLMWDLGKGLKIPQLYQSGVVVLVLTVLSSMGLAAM
T1 sequence (O14521 57-159 partner): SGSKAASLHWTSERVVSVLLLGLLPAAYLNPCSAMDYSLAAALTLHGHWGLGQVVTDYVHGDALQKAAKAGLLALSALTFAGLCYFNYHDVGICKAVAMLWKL

Row | Compound | evaluation of the stimulating influence on the enzyme activity of succinate dehydrogenase (grade in words) | stimulation of the enzyme activity of succinate dehydrogenase (percent in brackets) [%]
1 | CCOC(=O)/C=C/C(=O)[O-].[Ca+] [Calcium monoethyl fumarate] | medium | 
2 | COC(=O)/C=C/C(=O)OC [Dimethyl fumarate] | strong | 838
3 | CCOC(=O)/C=C/C(=O)[O-].[Mg+] [Magnesium monoethyl fumarate] | weak | 
4 | CCOC(=O)/C=C/C(=O)O [Monoethyl fumarate] | weak | 
5 | CCOC(=O)/C=C/C(=O)[O-].[Zn+] [Zinc monoethyl fumarate] | strong | 107
